Laboratory results published in US11053204B2, “Pyrimidinyloxy benzene derivatives as herbicides” (FMC Corporation, priority 2015, dated 2021).

How the values were obtained:
Type in all cases: in vivo
[1] = tested on: Italian ryegrass (Lolium multiflorum); experiment: Test A preemergence, visual injury rating; conditions: for Plant response rating, Ryegrass, Italian: 31 g ai/ha, 0 to 100 scale, 0 no effect, 100 complete control; for Ryegrass, Italian plant response rating: 125 g ai/ha, 0 to 100 scale (0 no effect, 100 complete control)
Outline: (§1)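 Greenhouse pot test, loam/sand soil. Formulation: non-phytotoxic solvent mix plus surfactant. Pre: directed spray onto soil after sowing. Post: plants at 1–2 leaf, 2–10 cm. Rated visually vs untreated controls at ~10 d, 0 (no effect) to 100 (complete control).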

[2] = tested on: barnyardgrass (Echinochloa crus-galli); experiment: Test A preemergence, visual injury rating; conditions: for Plant response rating, Barnyardgrass: 31 g ai/ha, 0 to 100 scale, 0 no effect, 100 complete control; for Barnyardgrass plant response rating: 125 g ai/ha, 0 to 100 scale (0 no effect, 100 complete control)
Outline: as §1

[3] = tested on: giant foxtail (Setaria faberii); experiment: Test A preemergence, visual injury rating; conditions: for Plant response rating, Foxtail, Giant: 31 g ai/ha, 0 to 100 scale, 0 no effect, 100 complete control; for Foxtail, Giant plant response rating: 125 g ai/ha, 0 to 100 scale (0 no effect, 100 complete control)
Outline: as §1

kochia (Kochia scoparia) [4] = experiment: Test A preemergence, visual injury rating; conditions: for Plant response rating, Kochia: 31 g ai/ha, 0 to 100 scale, 0 no effect, 100 complete control; for Kochia plant response rating: 125 g ai/ha, 0 to 100 scale (0 no effect, 100 complete control)
Outline: as §1

[5] = tested on: pigweed (Amaranthus retroflexus); experiment: Test A preemergence, visual injury rating; conditions: for Plant response rating, Pigweed: 31 g ai/ha, 0 to 100 scale, 0 no effect, 100 complete control; for Pigweed plant response rating: 125 g ai/ha, 0 to 100 scale (0 no effect, 100 complete control)
Outline: as §1

[6] = tested on: ragweed (common ragweed, Ambrosia elatior); experiment: Test A preemergence, visual injury rating; conditions: for Plant response rating, Ragweed: 31 g ai/ha, 0 to 100 scale, 0 no effect, 100 complete control; for Ragweed plant response rating: 125 g ai/ha, 0 to 100 scale (0 no effect, 100 complete control)
Outline: as §1

[7] = tested on: Italian ryegrass (Lolium multiflorum); experiment: Test A postemergence, visual injury rating; conditions: 0 is no effect, 100 is complete control; for Ryegrass, Italian plant response rating: 0 to 100 scale, approximately 10 days
Outline: as §1

[8] = tested on: barnyardgrass (Echinochloa crus-galli); experiment: Test A postemergence, visual injury rating; conditions: 0 is no effect, 100 is complete control; for Barnyardgrass plant response rating: 31 g ai/ha, 0 to 100 scale, approximately 10 days; for Barnyardgrass plant response rating (0 to 100 scale): 125 g ai/ha
Outline: as §1

[9] = tested on: blackgrass (Alopecurus myosuroides); experiment: Test A postemergence, visual injury rating; conditions: 0 is no effect, 100 is complete control; for Blackgrass plant response rating: 31 g ai/ha, 0 to 100 scale, approximately 10 days; for Blackgrass plant response rating (0 to 100 scale): 125 g ai/ha
Outline: as §1

corn (Zea mays) = experiment: Test A postemergence, visual injury rating; conditions: 0 is no effect, 100 is complete control; for Corn plant response rating: 31 g ai/ha, 0 to 100 scale, approximately 10 days; for Corn plant response rating (0 to 100 scale): 125 g ai/ha
Outline: as §1

[10] = tested on: galium (catchweed bedstraw, Galium aparine); experiment: Test A postemergence, visual injury rating; conditions: 0 is no effect, 100 is complete control; for Galium plant response rating: 31 g ai/ha, 0 to 100 scale, approximately 10 days; for Galium plant response rating (0 to 100 scale): 125 g ai/ha
Outline: as §1

[11] = tested on: giant foxtail (Setaria faberii); experiment: Test A postemergence, visual injury rating; conditions: 0 is no effect, 100 is complete control; for Foxtail, Giant plant response rating: 31 g ai/ha, 0 to 100 scale, approximately 10 days; for Foxtail, Giant plant response rating (0 to 100 scale): 125 g ai/ha
Outline: as §1

kochia (Kochia scoparia) [12] = experiment: Test A postemergence, visual injury rating; conditions: 0 is no effect, 100 is complete control; for Kochia plant response rating: 0 to 100 scale, approximately 10 days
Outline: as §1

[13] = tested on: pigweed (Amaranthus retroflexus); experiment: Test A postemergence, visual injury rating; conditions: 0 is no effect, 100 is complete control; for Pigweed plant response rating: 0 to 100 scale, approximately 10 days
Outline: as §1

[14] = tested on: ragweed (common ragweed, Ambrosia elatior); experiment: Test A postemergence, visual injury rating; conditions: 0 is no effect, 100 is complete control; for Ragweed plant response rating: 0 to 100 scale, approximately 10 days
Outline: as §1

[15] = tested on: wheat (Triticum aestivum); experiment: Test A postemergence, visual injury rating; conditions: 0 is no effect, 100 is complete control; for Wheat plant response rating: 0 to 100 scale, approximately 10 days
Outline: as §1

[16] = tested on: barnyardgrass (Echinochloa crus-galli); experiment: Test B flooded paddy test, plant response rating; conditions: 250 g ai/ha; Flood; scale of 0 to 100 where 0 is no effect and 100 is complete control; 13 to 15 days
Outline: (§2)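 Greenhouse pots flooded to 3 cm above soil at time of treatment received compound via the water, which stayed at that level.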

[17] = tested on: ducksalad (Heteranthera limosa); experiment: Test B flooded paddy test, plant response rating; conditions: 250 g ai/ha; Flood; scale of 0 to 100 where 0 is no effect and 100 is complete control; 13 to 15 days
Outline: as §2

rice (Oryza sativa) = experiment: Test B flooded paddy test, plant response rating; conditions: 250 g ai/ha; Flood; scale of 0 to 100 where 0 is no effect and 100 is complete control; 13 to 15 days
Outline: as §2

[18] = tested on: sedge, umbrella (small-flower umbrella sedge, Cyperus difformis); experiment: Test B flooded paddy test, plant response rating; conditions: 250 g ai/ha; Flood; scale of 0 to 100 where 0 is no effect and 100 is complete control; 13 to 15 days
Outline: as §2

Structure (SMILES)	Plant response rating, Ryegrass, Italian [1]	Ryegrass, Italian plant response rating [1]	Plant response rating, Barnyardgrass [2]	Barnyardgrass plant response rating [2]	Plant response rating, Foxtail, Giant [3]	Foxtail, Giant plant response rating [3]	Plant response rating, Kochia (kochia (Kochia scoparia) [4])	Kochia plant response rating (kochia (Kochia scoparia) [4])	Plant response rating, Pigweed [5]	Pigweed plant response rating [5]	Plant response rating, Ragweed [6]	Ragweed plant response rating [6]	Ryegrass, Italian plant response rating ([7]; 31 g ai/ha)	Barnyardgrass plant response rating [8]	Barnyardgrass plant response rating (0 to 100 scale) [8]	Blackgrass plant response rating [9]	Blackgrass plant response rating (0 to 100 scale) [9]	Corn plant response rating (corn (Zea mays))	Corn plant response rating (0 to 100 scale) (corn (Zea mays))	Galium plant response rating [10]	other results
CCCCC(=O)c1c(C#N)cccc1Oc1ncc(Cl)cn1 [Compound 68]	0	0	10	70	10	80	0	30	20	80	0	0	0	10	30	10	30	10	20	20	Ryegrass, Italian plant response rating (0 to 100 scale) ([7]; 125 g ai/ha): 0; Galium plant response rating (0 to 100 scale) [10]: 60; Foxtail, Giant plant response rating [11]: 20; Foxtail, Giant plant response rating (0 to 100 scale) [11]: 30; Kochia plant response rating (kochia (Kochia scoparia) [12]; 31 g ai/ha): 20; Kochia plant response rating (0 to 100 scale) (kochia (Kochia scoparia) [12]; 125 g ai/ha): 40; Pigweed plant response rating ([13]; 31 g ai/ha): 20; Pigweed plant response rating (0 to 100 scale) ([13]; 125 g ai/ha): 90; Ragweed plant response rating ([14]; 31 g ai/ha): 0; Ragweed plant response rating (0 to 100 scale) ([14]; 125 g ai/ha): 20; Wheat plant response rating ([15]; 31 g ai/ha): 0; Wheat plant response rating (0 to 100 scale) ([15]; 125 g ai/ha): 0; Plant response rating, Barnyardgrass [16]: 0; Plant response rating, Ducksalad [17]: 0; Plant response rating, Rice (rice (Oryza sativa)): 0; Plant response rating, Sedge, Umbrella [18]: 0
CC(=NOC(C)C)c1c(C#N)cccc1Oc1ncc(Cl)cn1 [Compound 69]	0	0	70	90	40	70	0	30	40	100	0	0	0	10	70	10	30	0	20	40	Ryegrass, Italian plant response rating ([7]; 125 g ai/ha): 0; Galium plant response rating (0 to 100 scale) [10]: 60; Foxtail, Giant plant response rating [11]: 20; Foxtail, Giant plant response rating (0 to 100 scale) [11]: 30; Kochia plant response rating (kochia (Kochia scoparia) [12]; 31 g ai/ha): 20; Kochia plant response rating (kochia (Kochia scoparia) [12]; 125 g ai/ha): 40; Pigweed plant response rating ([13]; 31 g ai/ha): 40; Pigweed plant response rating ([13]; 125 g ai/ha): 80; Ragweed plant response rating ([14]; 31 g ai/ha): 0; Ragweed plant response rating ([14]; 125 g ai/ha): 0; Wheat plant response rating ([15]; 31 g ai/ha): 0; Wheat plant response rating ([15]; 125 g ai/ha): 0; Plant response rating, Barnyardgrass [16]: 0; Plant response rating, Ducksalad [17]: 75; Plant response rating, Rice (rice (Oryza sativa)): 20; Plant response rating, Sedge, Umbrella [18]: 80
